Test results from patent US20220287938A1, “COSMETIC COMPOSITION COMPRISING EUTECTIC MIXTURE” (LG HOUSEHOLD & HEALTH CARE LTD., priority 2019, published 2022).
One block for each compound: values may come before it.

How the values were obtained:
HaCaT cells = experiment: Scratch wound healing (skin regeneration promotion); type: cell-based, human
Procedure: HaCaT cells, which are a human-derived keratinocyte cell line, were cultured under conditions of 37° C. and 5% CO2 using a DMEM medium (ADDEXBIO TECHNOLOGIES, San Diego, Calif., USA) supplemented with 10% fetal bovine serum (Gibco, Waltham, Mass., USA), […] and […]. After the cultured cells were seeded into a 24-well plate so as to have 2.0×10^5 cells per well, and then cultured for 24 hours, the cells were washed once with PBS, and scratches having a perpendicular line shape were created on the center of the plate by scraping the cells with a 200 μl pipet tip. The cells were washed twice with PBS to remove the dropped cell debris, and the medium was replaced with a […] DMEM containing each test material. In order to always capture the same part when the cells were photographed, the center of the well was marked with a fine marker and the cell photograph of the marked part was taken at the same time at the start of the experiment (0 hours). The cell photographs after 2, 4 and 24 hours were also taken in the same way. After a scratch area created on monolayer cells was measured from the photographs after 0 hours and 24 hours using an image analysis program (Image J), the area filled with the scratch area was shown as a wound healing percentage (%) according to the following General Formula 1.

human fibroblasts = experiment: Total amount of collagen produced (PICP EIA kit); type: cell-based; details: for Average absorbance: 450 nm, number of repeats=3; for Collagen increase rate (%): relative to control (no additive)
Procedure: The total amount of collagen was quantified using a PICP kit (Procollagen Type I C-Peptide Enzyme ImmunoAssay KIT).
Specifically, after each sample was added to the culture medium of human fibroblasts and cultured for 1 day, the culture medium was taken, and a degree of increase in the total amount of collagen at each concentration was measured at 450 nm using a spectrophotometer with the PICP EIA kit.

back skin of a pig = experiment: Keratin exfoliation effect on pig back skin (exfoliated keratin counted with cell counter)
Procedure: In order to confirm the keratin exfoliation effect of the aqueous eutectic mixture solution by the serine concentration of Example 2, the back skin of a pig was treated with the aqueous solution. Specifically, a 6-mm diameter sample with a thickness of 1 mm was taken from the back skin of the pig using a biopsy tool. After the sample was placed on a 96-well plate and washed once with phosphate buffered saline (PBS), 100 μl of the aqueous eutectic mixture solution of Example 2 was added thereto. In this case, to compare the keratin exfoliation effects, 100 μl of Comparative Example 4, a solution containing serine and malic acid, was added to the back skin of a pig in the same manner as described above. After the pig's back skin sample treated with each aqueous solution was stored under conditions of a temperature of 37° C. and humidity of 50% for 16 hours, the keratin exfoliation effect was confirmed by measuring the number of exfoliated keratin with a cell counter. In this case, a sample to which water was added was used as a negative control, a sample to which 10% gluconolactone (polyhydroxy acid, PHA) with a pH of 4, which is a known keratin exfoliating substance, was added was used as a first positive control, and a sample to which 10% gluconolactone with a pH of 6 was added was used as a second positive control. In the case of the second positive control, the keratin exfoliation effect was evaluated based on the condition that the efficacy was 15 to 20% compared to the first positive control. Here, the first positive control is applied as a reference for comparing the values between the actual experimental examples, and a relative keratin exfoliation value (%) was calculated and described as [(result value of sample)/(value of first positive control group)×100]. […]
Furthermore, it was confirmed whether the eutectic mixture was dissociated by observing the properties of a cosmetic (essence) including the eutectic mixture of Example 12, which was allowed to stand under separation conditions of the eutectic composition (Table 27) and confirming changes in melting point through measurement by differential scanning calorimetry (DSC) (Table 28) and the keratin exfoliation effect (Table 29), of the cosmetic. […] The melting point is expressed as a heat flow with respect to the sample in the DSC, and its accuracy is known to be 0.01° C. The melting point was measured in a pure nitrogen atmosphere, nitrogen was fed into a measuring chamber at a rate of 20 cc/min in order to maintain the nitrogen atmosphere, and the temperature of the chamber was set so as to increase by 10° C. per minute. The mass of the measured sample was confirmed by subtracting the weight of a pan for accommodating the sample in the DSC from the weight including the entire sample. […]

[1] = Skin permeability on pig skin (serine quantified by liquid chromatography); type: in vitro ADME; details: pH 6.0 (mixtures adjusted to weakly acidic using citric acid); serine 5 parts by weight
Procedure: 10 μg of each of the aqueous solutions of Comparative Examples 1 and 2 and Example 1 were prepared and applied to pig skin having a uniform area. A tissue soaked with phosphate buffered saline (PBS) was placed on a 6-well plate and stored with the pig skin placed on the tissue under conditions of a temperature of 37° C. and a humidity of 50% for 12 hours. Then, the sample that could not penetrate the skin was removed using a cotton swab and a keratin tape, and the weight of the pig skin was measured. After the pig skin was crushed using a homogenizer, the amino acid and the eutectic mixture in the sample were sufficiently dissolved by adding 1 ml of water thereto, and then the resulting solution was centrifuged at 12,000 rpm for 10 minutes. After centrifugation, 0.5 ml of the supernatant was collected, and the serine concentration of the sample, which would be the amount permeated through the skin, was quantified using liquid chromatography with standard samples, and then transmittance was obtained by dividing the quantified concentration by the weight of the pig skin and comparing this to the initially introduced serine mass, as serine amount per gram of the tissue. The results of the skin permeability are illustrated in FIG. 2.
The skin permeability of the eutectic mixture prepared in Experimental Example 12 was confirmed. […]

Compound: N=C(N)NCCC[C@H](N)C(=O)O [Arg, arginine]
Wound healing percentage (%) after 24 hours (HaCaT cells; 10 ppm (mixtures based on the concentration of arginine)): 73.5%
Average absorbance (human fibroblasts; 10 ppm, cultured for 1 day): 2.429
Collagen increase rate (%) (human fibroblasts; 10 ppm): 19.3%

Compound: N[C@@H](CCC(=O)O)C(=O)O [Glu, glutamic acid]
Wound healing percentage (%) after 24 hours (HaCaT cells; 1 ppm): 70.1%
Average absorbance (human fibroblasts; 10 ppm, cultured for 1 day): 2.240
Collagen increase rate (%) (human fibroblasts; 10 ppm): 10.0%

Compound: O=C1O[C@H](CO)[C@@H](O)[C@H](O)[C@H]1O [PHA, gluconolactone]
Keratin exfoliation relative value (%) (back skin of a pig; pH 4.0, 10% gluconolactone, first positive control (reference = 100)): 100%
Keratin exfoliation relative value (%) (back skin of a pig; pH 4.0, first positive control (reference = 100)): 100%
Keratin exfoliation relative value (%) (back skin of a pig; pH 6.0 (mixtures adjusted to weakly acidic using citric acid)): 25.5%
Keratin exfoliation relative value (%) (back skin of a pig; pH 6.0, 10% gluconolactone, second positive control): 18.8%

Skin permeability relative value (Maximum value converted to 100%) [1]: 71.7%
Compound: N[C@@H](CO)C(=O)O [Serine, serine]

Compound: TGF-β
Average absorbance (human fibroblasts; 10 ng/ml (positive control)): 2.335
Collagen increase rate (%) (human fibroblasts; 10 ng/ml (positive control)): 14.7%
